{"source": "patent US20130190275A1", "about": "“COMBINED THERAPIES OF ANTIPSYCHOTIC DRUGS AND TETRACYCLINES IN THE TREATMENT OF PSYCHIATRIC DISORDERS” (MOR RESEARCH APPLICATIONS LTD., priority 2006, published 2013)", "type_in_all_cases": "in vivo, rat", "key": {"MK801 treated rats [1]": {"tested_on": "MK801 treated rats", "assay": "Morris Water Maze (MWM) task, MK801 animal model of schizophrenia", "conditions": "MK801 alone vs saline group, p<0.001", "method": "Morris Water Maze (MWM): The MWM consisted of a water pool (diameter=1.8 m; depth=0.6 m) containing water at 26±1° C. A hidden platform was located 1.5 cm below the water surface. Within the testing room, only distal visuo-spatial cues were available to the rats for location of the submerged platform. A video camera was placed above the center of the pool for tracking the rat, and a video tracking system (Noldus Information Technology b.v., Wageninpen, The Netherlands) with online digital output, directly fed data into a computer and analyzed. Data were analyzed by using an Etho-Vision automated tracking system (Noldus Information Technology).\n(§1) Fifteen minutes before the behavioral procedures conducted at the fourth day, the subject was injected i.p. with an 0.1 mg/kg dose of MK801 or saline, for a total volume of 1 ml per kg of body weight. Next, the subjects passed the three behavioral procedures, described in the following paragraphs.\nThe MWM, a hippocampal-dependent visuo-spatial learning task, was used to assess the subjects' spatial learning/memory. The ability of an animal to locate a hidden platform submerged under water by using extra-maze cues from the test environment was examined. The rats were trained in a pool 1.8 m in diameter and 0.6 m high, containing water at 26±1° C. A 10 cm square transparent platform was hidden in a constant position in the pool submerged 1 cm below the water level. Within the testing room only distal visuo-spatial cues were available to the rats for location of the submerged platform.\nRats were given four trials per day, to find the hidden platform (acquisition phase). The escape latency, i.e., the time required by the rat to find and climb onto the platform, was recorded for up to 120 sec. Each rat was allowed to remain on the platform for 30 sec, and was then removed to its home cage.\nMorris Water Maze (MWM): Escape latency, the time between placing the rat in the pool until it located the platform, was measured during behavioral testing. The escape latency was analyzed by means of […] repeated measures analysis of variance (ANOVA) with a between-subjects measure of ‘group’ (treatment group) and a within-subjects measure of ‘trail’ (effects amongst groups in the four different trials).\nThe MWM test was then performed (see FIG. 1 for results). A significant main effect of ‘group’, ‘trail’ and a significant ‘group’×‘trails’ interaction was found in the repeated measured ANOVA for the MWM task [F(5,35)=9.699, p<0.001; F(3,33)=31.551, p<0.001; F(15,91)=1.824, p<0.05; respectively]."}, "MK801 treated rats [2]": {"tested_on": "MK801 treated rats", "assay": "Habituation of the Acoustic Startle Response (ASR), MK801 animal model", "method": "(§2) Acoustic Startle Response (ASR) and Pre-Pulse Inhibition (PPI): Both experimental paradigms were performed in a room that was adjacent to the laboratory facilities and the animal stall and that was not used for other experiments. The animals were tested in squad of two with startle chambers counterbalanced across the different experimental groups. Startle response and prepulse inhibition were measured using two ventilated startle chambers (SR-LAB system, San Diego Instruments, San Diego, Calif.). Each chamber consisted of a Plexiglas cylinder resting on a platform inside a sound-attenuated, ventilated chamber. A high-frequency loudspeaker inside the chamber produced both a continuous broadband background noise of 70 dB and the various acoustic stimuli. Movement inside the tube was detected by a piezoelectric accelerometer below the frame. The amplitude of the whole body startle to an acoustic pulse was defined as the average of 100 one-msec accelerometer readings collected from pulse onset. These signals were then digitized and stored by a computer. Sound levels within each test chamber were measured routinely using a sound level meter (Radio Shack) to ensure consistent presentation. The SR-LAB calibration unit was used routinely to ensure consistent stabilimeter sensitivity between test chambers and over time (Swerdlow and Geyer, 1998, Schizophrenia Bulletin, 24(2), 285-301).\nas §1\n(§3) ASR and PPI were measured using two startle chambers, with each chamber consisting of a Plexiglas cylinder resting on a platform inside a sound-attenuated, ventilated chamber (see also materials section). The animals were tested in pairs with startle chambers counterbalanced across the different experimental groups.\nThe ASR test measured the ability of the animal to habituate to repetitive loud pulses of noise. […] Movement inside the tube was detected by a piezoelectric accelerometer below the frame. The amplitude of the whole body startle to an acoustic pulse was defined as the average of 100 one-msec accelerometer readings collected from pulse onset. […]\nAcoustic Startle Response (ASR): The decrease in ASR in the groups was calculated as the percent of amplitude decrease between the mean of the first five amplitude values and the mean of the last 25 amplitude values.\nPercent habituation=100×[(average startle amplitude in Block 1)−(average startle amplitude in Block 5)/(average startle amplitude in Block 1)]. Results were analyzed by two-way ANOVA a between-subject measure of ‘group’ (treatment group)."}, "MK801 treated rats [3]": {"tested_on": "MK801 treated rats", "assay": "Pre-Pulse Inhibition (PPI) paradigm, MK801 animal model", "method": "as §2, §1, §3\nPPI of the startle response was used as a measure of sensorimotor gating, with the startle chambers used to assess the ability of prepulse stimuli to block the startle response. […]\nPre-Pulse Inhibition (PPI): Startle magnitude is expressed in all the procedures as arbitrary units. Percent PPI (% PPI) was calculated as the mean startle magnitude to stimulus-alone minus the mean startle magnitude to prepulse-stimulus trials, all divided by the mean stimulus-alone trials, and multiplied by 100. The overall mean % PPI was calculated for the four prepulse intensities (72, […], 80, 84 dB). Results were analyzed by two-way ANOVA with a between-subject measure of ‘group’ (difference the treatment groups) and ‘prepulse intensity’ (72, 76, 80, 84 dB)."}, "[4]": {"conditions": "drug+MK801 0.1 mg/kg i.p., minocycline 35 mg/kg x 3 days pretreatment, haloperidol 0.4 mg/kg i.p."}}, "note": "Where a name gives a salt, the structure may show the parent alone.", "data": [{"smiles": "C[C@]12N[C@H](Cc3ccccc31)c1ccccc12", "note": "[MK801, Dizocilpine maleate]", "values": [{"measurement": "escape latency", "setting": "MK801 treated rats [1]", "value": "longer escape latencies"}, {"measurement": "percent habituation of the startle response (% habituation)", "setting": "MK801 treated rats [2]; MK801 alone vs saline treated rats", "value": "induced a significant deficit in the habituation of ASR"}, {"measurement": "percent of PPI (% PPI)", "setting": "MK801 treated rats [3]; MK801 alone vs saline treatment group", "value": "induced a significant deficit in the PPI"}]}, {"smiles": "O=C(CCCN1CCC(O)(c2ccc(Cl)cc2)CC1)c1ccc(F)cc1", "note": "[haloperidol]", "values": [{"measurement": "percent habituation of the startle response (% habituation)", "setting": "MK801 treated rats [2]; [4]", "value": "not able to prevent the deficits induced by MK801"}, {"measurement": "percent of PPI (% PPI)", "setting": "MK801 treated rats [3]; [4]", "value": "lack of significant effects"}]}]}
